Measured values taken from PubChem BioAssay (NCI).
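Grown in 96-well plates, cells were treated for 48 hours with each compound at five concentrations. Insufficient inhibition: endpoint recorded as highest concentration tested. At the GI50, growth is halved. Definition used: TGI = concentration required for complete inhibition of growth.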

Columns and labels:
Assay in all cases: inhibition of tumour cell growth, NCI panel, 48 h
[1] = test system: RXF-631 renal
[2] = test system: SNB-78 CNS
[3] = test system: DMS 273 small cell lung
[4] = test system: DMS 114 small cell lung
[5] = test system: MDA-N
[6] = test system: BT-549 breast
[7] = test system: PC-3 prostate
[8] = test system: MDA-MB-435
[9] = test system: T-47D breast

For `COC[C@H](C)N=CN1CCc2ccccc2C1(Cc1ccccc1)Cc1ccccc1`, the TGI [1] was 34.9 µM.
For `COC(=O)C(/C(=N\NC(N)=S)C(=O)Nc1ccccc1[N+](=O)[O-])c1cnc2ccccc2n1` (centres undefined), the TGI [2] was > 100 µM, the TGI [3] was > 100 µM and the TGI [1] was > 100 µM. For the same compound, the TGI [4] was > 100 µM.
For `c1ccc2c(NCCCCCCNc3cccc4ccccc34)cccc2c1`, the TGI [2] was > 100 µM, the TGI [3] was > 100 µM and the TGI [1] was > 100 µM. For the same compound, the TGI [4] was > 100 µM.
`COc1ccc(CCc2cc(OC)c(O)c(OC)c2)cc1` was tested, and the TGI [2] was > 100 µM, the TGI [3] was > 100 µM and the TGI [1] was > 100 µM. For the same compound, the TGI [4] was > 100 µM.
With `Cc1ccccc1C1CC(c2ccccc2)=NO1` (centres undefined) the TGI [2] was > 100 µM, the TGI [3] was > 100 µM and the TGI [1] was > 100 µM. The TGI [4] was > 100 µM.
In the case of `COC(=O)/C(=N\NC(N)=O)C(C(=O)C=C(C)C)C(=O)C(=O)Nc1ccc(Cl)c(Cl)c1` (centres undefined), the TGI [2] is reported as > 100 µM, the TGI [3] is reported as > 100 µM and the TGI [1] is reported as > 100 µM. For the same compound, the TGI [4] was > 100 µM.
With `Nc1ccc(Sc2c3ccccc3nc3ccccc23)cc1` the TGI [2] was 53.3 µM, the TGI [5] was 38.5 µM and the TGI [3] was 28.8 µM. It also gave a TGI [6] of 27.4 µM, a TGI [7] of 25.7 µM and a TGI [8] of 35.1 µM. For the same compound, the TGI [4] was 38 µM and the TGI [9] was 5.6 µM.
`Cc1cc(Cl)ccc1NC(=O)C(=O)C(C(=O)c1ccccc1)C1OC(=O)c2ccccc21` (centres undefined) was tested, and the TGI [2] was > 100 µM, the TGI [3] was > 100 µM and the TGI [4] was > 100 µM.
In the case of `CCc1cccc(C)c1NC(=S)NC(=O)c1ccccc1C(=O)NC(=S)Nc1c(C)cccc1CC`, the TGI [2] is reported as > 100 µM, the TGI [3] is reported as > 100 µM and the TGI [4] is reported as 70.8 µM.
`CCOP1(=O)C=C(C)C(=C(Cl)Cl)C(C)=C1` (centres undefined) gave a GI50 [1] of 20.4 µM and a TGI [1] of 64.5 µM.
For `CCCCCCCCCCCCCB(O)O`, the TGI [2] was > 100 µM, the TGI [3] was > 100 µM and the TGI [4] was > 100 µM.
`O=C1C2C3C=CC(C2C(=O)N1CN1CCSCC1)C1C2C(=O)N(CN4CCSCC4)C(=O)C2C31` (centres undefined) was tested, and the TGI [2] was > 100 µM, the TGI [3] was > 61.4 µM and the TGI [1] was > 100 µM. The TGI [4] was > 56.1 µM.
